How the values were obtained:
CV-1 = test: Inhibitory concentration against growth of monkey normal kidney epithelial cells as a measure of compound toxicity; assay type: functional, cell-based, Cercopithecidae; details: Chlorocebus aethiops
[1] = Selectivity ratio is IC50 of Human colon carcinoma cells to that of Monkey normal kidney epithelial cells; assay type: functional, Epithelial cell
CX-1 = test: Inhibitory concentration against growth of human colon carcinoma cells; assay type: functional, cell-based
LOX IMVI [2] = test: Inhibitory concentration of compound against growth of human melanoma cells; assay type: functional, cell-based
MCF7 = test: Inhibitory concentration of compound against growth of human breast carcinoma cells; assay type: functional, cell-based
Mus musculus [3] = test: 5 mg/kg of compound was administered IP on days 1,3,7,10,16 to OVCARIII tumor bearing nude mice and the ratio of median survival time of treated to control was reported
Bladder carcinoma cell = test: Inhibitory concentration of compound against growth of human bladder carcinoma cells; assay type: functional, cell-based
Mus musculus [4] = test: 5 mg/kg of compound was administered IP on days 1,5,7 to CX-1 tumor bearing nude mice and the inhibition ratio was reported; assay type: functional
Mus musculus [5] = test: 5 mg/kg of compound was administered IP on days 1,5,8,12 to LOX tumor bearing nude mice and the ratio of median survival time of treated to control was reported; assay type: functional
MIA PaCa-2 = test: Inhibitory concentration of compound against growth of human pancreatic carcinoma cells; assay type: functional, cell-based
Mus musculus [6] = test: 1.5 mg/kg of compound was administered IP on days 1,3,4,7,9 to LOX tumor bearing nude mice and the ratio of median survival time of treated to control was reported; assay type: functional
Mus musculus [7] = test: 5 mg/kg of compound was administered IP on days 1,3,7,10,16 to […] tumor bearing nude mice and the ratio of median survival time of treated to control was reported; assay type: functional; details: at 5 mg/kg
Mus musculus [8] = test: 5 mg/kg of compound was administered IP on days 1,5,8,12,15 to LOX tumor bearing nude mice and the ratio of median survival time of treated to control was reported; assay type: functional; details: at 5 mg/kg
Mus musculus [9] = test: 2 mg/kg of compound was administered IP on days 1,2,4,5,7,8,10 to LOX tumor bearing nude mice and the ratio of median survival time of treated to control was reported; assay type: functional; details: at 2 mg/kg
LOX IMVI [10] = test: Inhibitory concentration of compound against growth of human melanoma cell cells; assay type: functional, cell-based
Mus musculus [11] = test: 4 mg/kg of compound was administered IP on days 1,2,4,5,7,8,10 to LOX tumor bearing nude mice and the ratio of median survival time of treated to control was reported; assay type: functional; details: at 4 mg/kg
[12] = Homo sapiens, Bladder carcinoma cell

SMILES	IC50 (CV-1) [nM]	Ratio [1]	IC50 (CX-1) [nM]	other results
CCN1/C(=C/C=C(Cl)/C=C/c2sc3ccc4ccccc4c3[n+]2CC)Sc2ccc3ccccc3c21.Cc1ccc(S(=O)(=O)[O-])cc1	100	2	60	
CC[n+]1c(/C=c2\s/c(=C3/Sc4ccccc4N3C)c(=O)n2-c2ccccc2)sc2ccccc21.Cc1ccc(S(=O)(=O)[O-])cc1	2200	220	10	IC50 (LOX IMVI [2]): 40 nM; IC50 (MCF7; Homo sapiens, MCF7): 60 nM; T/C (Mus musculus [3]): >300%; IC50 (Bladder carcinoma cell; [12]): 40 nM; TI (Mus musculus [4]): 42%; T/C (Mus musculus [5]): 183%; IC50 (MIA PaCa-2; Homo sapiens, MIA PaCa-2): 40 nM
CCN1/C(=C/C=c2\s/c(=C\c3sc4ccccc4[n+]3CC)n(-c3ccccc3)c2=O)Sc2ccccc21.[I-]	3000	50	60	IC50 (LOX IMVI [2]): 40 nM; IC50 (MCF7; Homo sapiens, MCF7): 40 nM; IC50 (Bladder carcinoma cell; [12]): 400 nM; T/C (Mus musculus [6]): 256%; IC50 (MIA PaCa-2; Homo sapiens, MIA PaCa-2): 70 nM
CCn1c(=O)/c(=C2\Sc3ccccc3N2C)s/c1=C\c1sc2ccccc2[n+]1CC.[I-]	17300	346	50	IC50 (LOX IMVI [2]): 20 nM; IC50 (MCF7; mcf7): 90 nM; T/C (Mus musculus [7]): 180%; T/C (Mus musculus [8]): 168%; IC50 (Bladder carcinoma cell; bladder carcinoma cell): 70 nM; IC50 (MIA PaCa-2; mia paca-2): 50 nM
CCn1c(=O)c(=C2CCCCC2)s/c1=C\c1sc2ccccc2[n+]1CC.Cc1ccc(S(=O)(=O)[O-])cc1	16200	9	1800	
CCn1c(=O)/c(=C2\Sc3ccccc3N2C)n(CC)/c1=C\c1sc2ccccc2[n+]1CC.[I-]	25400	20	1300	
CC(=O)[O-].CCn1c(=O)/c(=C2\Sc3ccccc3N2C)s/c1=C\c1sc2ccccc2[n+]1CC				T/C (Mus musculus [9]): 156%; IC50 (MCF7; mcf7): 400 nM; IC50 (LOX IMVI [10]): 10 nM; IC50 (Bladder carcinoma cell; [12]): 60 nM; IC50 (MIA PaCa-2; Homo sapiens, MIA PaCa-2): 60 nM; T/C (Mus musculus [11]): 163%
CCN1/C(=C/C=c2\s/c(=C\c3sc4ccc5ccccc5c4[n+]3CC)n(CC)c2=O)Sc2ccc3ccccc3c21.Cc1ccc(S(=O)(=O)[O-])cc1	6500	217	30	
CCN1/C(=C/C=c2/c(=O)n(CC)/c(=C/c3sc4c5ccccc5ccc4[n+]3CC)n2CC)Sc2ccc3ccccc3c21.[I-]	800	8	100	
CC[n+]1c(/C=c2\s/c(=C\Nc3ccccc3)c(=O)n2-c2ccccc2)sc2ccccc21.[Br-]	1500	1	1500	
CCN1/C(=C/C=c2\s/c(=C\c3sc4ccccc4[n+]3CC)sc2=O)Oc2ccccc21.[I-]	3400	<2	> 1700	
CCN1C(=O)CS/C1=C\c1sc2ccccc2[n+]1CC.[Br-]	38900	30	1300	
CC[n+]1c(/C=C2\SCC(=O)N2c2ccccc2)sc2ccccc21.[Br-]	46100	20	2300	
CCN1/C(=C/C=c2/c(=O)s/c(=C/c3sc4ccccc4[n+]3CC)n2C)Oc2ccccc21.[I-]	3400	49	70	
CCN1/C(=C/C=c2\s/c(=C\c3sc4ccccc4[n+]3CC)n(C)c2=O)Oc2ccccc21.[I-]	1700	57	30	
CC[n+]1c(/C=c2\s/c(=C\C=C\Nc3ccccc3)c(=O)n2-c2ccccc2)sc2ccccc21.[I-]	9800	12	800	
CCN1/C(=C/C=C/c2sc3ccccc3[n+]2CC)Sc2ccccc21.[I-]	1200	20	60	

Reference: ChEMBL document CHEMBL1130168, “Synthesis and evaluation of novel rhodacyanine dyes that exhibit antitumor activity” (J Med Chem, 1997)
